The subject of one data set is human red blood cells. Put plainly: Hemolytic assay. Type of data set: cell-based. Particulars: mean (n = 2). The protocol:
Human whole blood was washed three times with 3 volumes of 0.9% NaCl and then resuspended in same to a concentration of 0.5 × 10^8 cells/mL, as determined by manual cell count in a Neubauer hemocytometer. The washed cells were then added to the 384-well compound-containing plates for a final volume of 50 μL. After a 10 min shake on a plate shaker, the plates were then incubated for 1 h at 37 °C. After incubation, the plates were centrifuged at 1000× g for 10 min to pellet cells and debris; 25 μL of the supernatant was then transferred to a polystyrene 384-well assay plate. Hemolysis was determined by measuring the supernatant absorbance at […] (OD405). The absorbance was measured using a Tecan M1000 Pro monochromator plate reader. HC10 and HC50 (concentration at 10% and 50% hemolysis, respectively) were calculated by curve fitting the inhibition values vs. log (concentration) using a sigmoidal dose–response function with variable fitting values for top, bottom and slope.

In data set [1] the test system is Staphylococcus aureus ATCC 25923 or ATCC 29213. Put plainly: MIC, broth dilution (CA-SFM). The conditions noted are these: Staphylococcus aureus ATCC 25923 or ATCC 29213; mean (n = 3); read-out: MIC S. a. The data set is classed as cell-based. On the technique in general: Dilution methods test growth across graded concentrations, often in twofold steps.
Data set [2] concerns Escherichia coli ATCC 25922. Put plainly: MIC, CO-ADD broth microdilution. The data set is classed as cell-based. Particulars: ATCC25922, mean (n = 2).
Data set [3] concerns Klebsiella pneumoniae ATCC700603. Nature of the data set: MIC, CO-ADD broth microdilution. Type of data set: cell-based. The conditions noted are these: mean (n = 2).
Data set [4] deals with Pseudomonas aeruginosa PAO1 or ATCC 27853. Nature of the data set: MIC, broth dilution (CA-SFM). Type of data set: cell-based. Particulars: mean (n = 3).
Data set [5] deals with Acinetobacter baumannii ATCC19606. Nature of the data set: MIC, CO-ADD broth microdilution. Type of data set: cell-based. Particulars: mean (n = 2).
Data set [6] can be described thus: Cytotoxicity assay (resazurin). The data set is classed as cell-based, human. The conditions noted are these: human; HEK293 cells; mean (n = 2); highest dose tested 32 μg/mL; read-out: Cytotoxicity (concentration of compound at 50% cytotoxicity, IC50). (In general: Alamar Blue is a resazurin reagent that responds to reducing activity.)
Data set [7] relates to Cryptococcus neoformans ATCC208821. Nature of the data set: Antifungal MIC, CO-ADD. The data set is classed as cell-based. Particulars: ATCC208821, Cryptococcus neoformans ATCC208821, mean (n = 2). On the procedure: (§1) For the antifungal assay, fungi strains were cultured for 3 days on YPD agar at 30 °C. A yeast suspension of 1 × 10^6 to 5 × 10^6 CFU/mL was prepared from five colonies. These stock suspensions were diluted with yeast nitrogen base (YNB) (Becton Dickinson, 233520) broth to a final concentration of 2.5 × 10^3 CFU/mL. […] Plates were covered and incubated at 35 °C for 36 h without shaking. C. albicans MICs were determined by measuring the absorbance at OD530. […] Fluconazole was used as a positive fungal inhibitor standard for C. albicans and C. neoformans. […] Quality control (QC) of the assays was determined by antimicrobial controls and Z’-factor (using positive and negative controls).

The test system of data set [8] is Candida albicans ATCC90028. Put plainly: Antifungal MIC, CO-ADD. Type of data set: cell-based. Particulars: mean (n = 2). The protocol:
as §1

In a further data set the test system is MRSA ATCC 43300. Nature of the data set: MIC, CO-ADD broth microdilution. The data set is classed as cell-based, Staphylococcus aureus. The conditions noted are these: for MIC: Staphylococcus aureus, MRSA ATCC 43300, mean (n = 2), read-out: MIC MRSA.

In general, MIC refers to the lowest concentration that inhibits growth of the organism. As for `Cl.Cl.S=C(NCCCNCCCCCCNCCCNC(=S)NC(c1ccccc1)c1ccccc1)NC(c1ccccc1)c1ccccc1` [Compound 6b, N^1,N^6-Bis(3-(3-benzhydrylthioureido)propyl)hexane-1,6-diaminium chloride], the “Hemolysis (HC10, concentration at 10% hemolytic activity)” value in the data set with human red blood cells came out at 2.96 µM. Moreover, the MIC is more than 265 µM in data set [1]; not above 0.33 µM in data set [2]; more than 42.4 µM in data set [3]; 265 µM in data set [4]; 10.7 µM in [5]; more than 42.4 µM in [7]. The MIC (in data set [8]; in the data set on MRSA ATCC 43300) was not above 0.33 µM each time. The IC50 at 20 h in [6] was more than 42.4 µM.
For `O=C(CCC(=O)NCCC(c1ccccc1)c1ccccc1)NCCCNCCCCCCCNCCCNC(=O)CCC(=O)NCCC(c1ccccc1)c1ccccc1.O=C(O)C(F)(F)F.O=C(O)C(F)(F)F` [Compound 16c, N^1,N^7-Bis(3-(4-((3,3-diphenylpropyl)amino)-4-oxobutanamido)propyl)heptane-1,7-diaminium 2,2,2-trifluoroacetate], the “Hemolysis (HC10, concentration at 10% hemolytic activity)” value in the data set with human red blood cells was more than 30.2 µM. The MIC in data set [1] is 24 µM; in [2] it was more than 30.2 µM; in data set [3], more than 30.2 µM; in data set [4], 480 µM; in data set [5], more than 30.2 µM; in [7] it was 30.2 µM. Besides, the values for the MIC (in [8]; in the data set on MRSA ATCC 43300) were more than 30.2 µM and not above 0.24 µM, respectively. In addition, the IC50 at 20 h in data set [6] is more than 30.2 µM.
Regarding `O=C(NCCCNCCCCNCCCNC(=O)C(c1ccccc1)(c1ccccc1)c1ccccc1)C(c1ccccc1)(c1ccccc1)c1ccccc1.O=C(O)C(F)(F)F.O=C(O)C(F)(F)F` [Compound 17a, N^1,N^4-Bis(3-(2,2,2-triphenylacetamido)propyl)butane-1,4-diaminium 2,2,2-trifluoroacetate], the “Hemolysis (HC10, concentration at 10% hemolytic activity)” value in the data set with human red blood cells came out at 5.57 µM. Moreover, the minimum inhibitory concentration (MIC) is 6.25 µM in data set [1]; 1.03 µM in [2]; more than 33 µM in [3]; 300 µM in data set [4]; 8.24 µM in [5]; less than 0.26 µM in [7]. Also, the values for the minimum inhibitory concentration (MIC) (in [8]; in the data set with MRSA ATCC 43300) were more than 33 µM and less than 0.26 µM, respectively. The IC50 at 20 h in data set [6] is 0.329 µM.
For the compound `O=C(CCc1ccccc1)NCCCNCCCCCCNCCCNC(=O)CCc1ccccc1.O=C(O)C(F)(F)F.O=C(O)C(F)(F)F` [Compound 13b, N^1,N^6-Bis(3-(3-phenylpropanamido)propyl)hexane-1,6-diaminium 2,2,2-trifluoroacetate], in the data set with human red blood cells, the “Hemolysis (HC10, concentration at 10% hemolytic activity)” value was more than 44.3 µM. The MIC in [1] was more than 277 µM; in data set [2] it was more than 44.3 µM; in [3], more than 44.3 µM; in [4], more than 277 µM; in [5], more than 44.3 µM; in data set [7] it was more than 44.3 µM. In addition, the MIC (in data set [8]; with MRSA ATCC 43300) was more than 44.3 µM each time. The IC50 at 20 h in data set [6] was more than 44.3 µM.
For the compound `O=C(CCc1ccccc1)NCCCNCCCCCCCCNCCCNC(=O)CCc1ccccc1.O=C(O)C(F)(F)F.O=C(O)C(F)(F)F` [Compound 13d, N^1,N^8-Bis(3-(3-phenylpropanamido)propyl)octane-1,8-diaminium 2,2,2-trifluoroacetate], the “Hemolysis (HC10, concentration at 10% hemolytic activity)” value in the data set with human red blood cells is more than 42.6 µM. For the same compound, the minimal inhibitory concentration (MIC) in [1] was more than 266 µM; in data set [2], more than 42.6 µM; in [3] it was more than 42.6 µM; in data set [4] it was more than 266 µM; in [5] it was more than 42.6 µM; in [7] it was more than 42.6 µM. Besides, the MIC (in data set [8]; in the data set on MRSA ATCC 43300) was more than 42.6 µM in each case. In addition, the IC50 at 20 h in data set [6] was more than 42.6 µM.
Take `O=C(CC(c1ccccc1)c1ccccc1)NCCCNCCCCCCCCCCNCCCNC(=O)CC(c1ccccc1)c1ccccc1.O=C(O)C(F)(F)F.O=C(O)C(F)(F)F` [Compound 15e, N^1,N^10-Bis(3-(3,3-diphenylpropanamido)propyl)decane-1,10-diaminium 2,2,2-trifluoroacetate]: the “Hemolysis (HC10, concentration at 10% hemolytic activity)” value with human red blood cells was more than 34.4 µM. Besides, the MIC in [1] was 3.13 µM; in data set [2] it was not above 0.27 µM; in [3] it was more than 34.4 µM; in data set [4], 200 µM; in data set [5], 2.15 µM; in [7] it was more than 34.4 µM. Besides, the MIC in data set [8] is more than 34.4 µM; with MRSA ATCC 43300, not above 0.27 µM. Also, in [6], the IC50 at 20 h was more than 34.4 µM.
Take `O=C(CCc1ccccc1)NCCCNCCCCCCCCCCNCCCNC(=O)CCc1ccccc1.O=C(O)C(F)(F)F.O=C(O)C(F)(F)F` [Compound 13e, N^1,N^10-Bis(3-(3-phenylpropanamido)propyl)decane-1,10-diaminium 2,2,2-trifluoroacetate]: the “Hemolysis (HC10, concentration at 10% hemolytic activity)” value in the data set on human red blood cells was more than 41.1 µM. The MIC in [1] was 32 µM; in [2], 41.1 µM; in data set [3], more than 41.1 µM; in data set [4], 642 µM; in data set [5], more than 41.1 µM; in data set [7], 41.1 µM. Also, the MIC in data set [8] is more than 41.1 µM; with MRSA ATCC 43300, 10.3 µM. Moreover, the IC50 at 20 h in data set [6] is more than 41.1 µM. Also, the “activity towards MRSA” value in the data set with MRSA ATCC 43300 (MRSA) is recorded as “weak”.
As for `O=C(NCCCNCCCCCCCNCCCNC(=O)C(c1ccccc1)(c1ccccc1)c1ccccc1)C(c1ccccc1)(c1ccccc1)c1ccccc1.O=C(O)C(F)(F)F.O=C(O)C(F)(F)F` [Compound 17c, N^1,N^7-Bis(3-(2,2,2-triphenylacetamido)propyl)heptane-1,7-diaminium 2,2,2-trifluoroacetate], the “Hemolysis (HC10, concentration at 10% hemolytic activity)” value in the data set on human red blood cells turned out to be 8.16 µM. For the same compound, the minimum inhibitory concentration (MIC) was 12.5 µM in data set [1]; 7.9 µM in [2]; 31.6 µM in data set [3]; 300 µM in [4]; 3.95 µM in data set [5]; 15.8 µM in [7]. The figures for the MIC (in [8]; in the data set with MRSA ATCC 43300) were 15.8 µM and less than 0.25 µM, respectively. In data set [6], the IC50 at 20 h was not above 0.247 µM.
As for `O=C(CC(c1ccccc1)c1ccccc1)NCCCNCCCCCCCNCCCNC(=O)CC(c1ccccc1)c1ccccc1.O=C(O)C(F)(F)F.O=C(O)C(F)(F)F` [Compound 15c, N^1,N^7-Bis(3-(3,3-diphenylpropanamido)propyl)heptane-1,7-diaminium 2,2,2-trifluoroacetate], the “Hemolysis (HC10, concentration at 10% hemolytic activity)” value with human red blood cells was more than 36.0 µM. In addition, the minimal inhibitory concentration (MIC) in data set [1] was 6.25 µM; in data set [2], 2.3 µM; in data set [3] it was more than 36 µM; in [4], 100 µM; in [5], more than 36 µM; in data set [7], not above 0.28 µM. Further, the MIC was more than 36 µM in data set [8] and not above 0.28 µM with MRSA ATCC 43300. Besides, the IC50 at 20 h in data set [6] was more than 36 µM.
As for `O=C(NCCCNCCCCCCNCCCNC(=O)C(c1ccccc1)(c1ccccc1)c1ccccc1)C(c1ccccc1)(c1ccccc1)c1ccccc1.O=C(O)C(F)(F)F.O=C(O)C(F)(F)F` [Compound 17b, N^1,N^6-Bis(3-(2,2,2-triphenylacetamido)propyl)hexane-1,6-diaminium 2,2,2-trifluoroacetate], in the data set on human red blood cells, the “Hemolysis (HC10, concentration at 10% hemolytic activity)” value came out at 6.27 µM. In addition, the MIC in data set [1] is 6.25 µM; in data set [2] it was 4 µM; in data set [3], 32 µM; in [4], 300 µM; in data set [5], 4 µM; in data set [7], less than 0.25 µM. In addition, the values for the MIC (in data set [8]; in the data set with MRSA ATCC 43300) were 16 µM and less than 0.25 µM, respectively. Also, the IC50 at 20 h in data set [6] is not above 0.25 µM.
